Laboratory results: PubChem BioAssay (NCI)
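96-well plates; 48 h exposure; 5 concentrations. Endpoints by linear interpolation between flanking doses. Not reached: highest tested concentration assigned. TGI: total growth inhibition.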

Legend:
Assay in all cases: growth of human tumour cells (NCI), 48 h
[1] = tested on: T-47D breast
[2] = tested on: SW-620 colon
[3] = tested on: NCI-H522 lung
[4] = tested on: M14 melanoma
[5] = tested on: SK-OV-3 ovarian
[6] = tested on: OVCAR-8 ovarian
[7] = tested on: MOLT-4 leukemia

| Compound | TGI [1] | TGI [2] | TGI [3] | TGI [4] | TGI [5] | TGI [6] | TGI [7] |
| --- | --- | --- | --- | --- | --- | --- | --- |
| CN(C)N=Nc1ccc2[nH]c(=O)[nH]c2c1 | > 100 µM | > 100 µM | > 100 µM | > 100 µM | > 100 µM | > 100 µM | – |
| O=[N+]([O-])C(C(Cl)=C(Cl)Cl)=C(n1cncn1)n1cncn1 | 51 µM | 43.1 µM | 28.7 µM | > 74.8 µM | > 100 µM | 44.2 µM | > 100 µM |
| COc1ccc(CCN2C(=O)CC34C=CC(CC3C2=O)O4)cc1OC (centres undefined) | > 100 µM | > 100 µM | – | > 100 µM | > 100 µM | > 100 µM | > 100 µM |
| NS(=O)(=O)c1nnc(NS(=O)(=O)c2ccc([N+](=O)[O-])cc2)s1 | > 100 µM | > 100 µM | 77.5 µM | > 100 µM | > 100 µM | > 100 µM | > 100 µM |
| COC(=O)CNC(=O)CCC(C)[C@H]1CCC2C3C(C[C@H](OC(C)=O)[C@@]21C)[C@@]1(C)CCC2(C[C@H]1C[C@H]3OC(C)=O)OOC1(CCCCC1)OO2 (some centres undefined) | 5.03 µM | 5.46 µM | 3.14 µM | 8.28 µM | 25 µM | 4.16 µM | 11.9 µM |
| COc1ccc2oc(C(=O)N3CC(CCl)c4ccc(N)cc43)cc2c1 (centres undefined) | 3.87 µM | 31.5 µM | 0.0828 µM | – | 8.78 µM | 1.51 µM | 5.44 µM |
| COCOc1cc(OC)ccc1C/C(=N/O)C(=O)OC | > 100 µM | > 100 µM | > 100 µM | > 100 µM | > 100 µM | > 100 µM | > 100 µM |
| N#Cc1c(-c2ccc([N+](=O)[O-])cc2)cc(-c2ccc(Nc3ccnc4cc(Cl)ccc34)cc2)nc1N | 11.1 µM | > 100 µM | 11.2 µM | 41.9 µM | 52.5 µM | > 23.3 µM | 5.4 µM |
| O=C1C(Cl)=C(NCCF)C(=O)c2ncccc21 | 4.25 µM | 3.35 µM | – | 3.15 µM | 3.74 µM | 4.55 µM | 3.72 µM |
| COC(=O)[C@H](Cc1c[nH]c2ccccc12)NC(=O)c1ccccc1I | 76.2 µM | > 100 µM | 30.9 µM | 32.4 µM | > 100 µM | > 100 µM | 56.9 µM |
| Cc1ccc(/S(Cc2ccccc2)=N\S(=O)(=O)c2ccc(C)cc2)cc1 (centres undefined) | > 100 µM | > 100 µM | – | > 100 µM | – | > 100 µM | – |
| Nc1c2cc3ccc2nc2ccc(cc12)OCCOCCOCCOCCOCCOCCO3 | > 10 µM | > 10 µM | > 10 µM | > 10 µM | > 10 µM | > 10 µM | > 10 µM |
| COc1cccc2cc(C(=O)NC34CC5CC(CC(C5)C3)C4)c(=N)oc12 | > 74.4 µM | > 100 µM | > 88.7 µM | > 100 µM | > 100 µM | > 50.6 µM | 23.2 µM |
| NC(N)=N/N=C/c1c(-c2cc([N+](=O)[O-])c(Cl)cc2Cl)nc2n1CCS2 | – | > 100 µM | 51.5 µM | > 100 µM | – | > 100 µM | 58.6 µM |
| Cc1ccc(C(=O)N/N=C2/C(=O)c3c4ccccc4cc4cccc2c34)cc1 | 83.2 µM | > 100 µM | 59.8 µM | > 100 µM | > 75.9 µM | > 100 µM | > 100 µM |
| C1=NCCOCCN=Cc2ccc(cc2)OCc2cccc(n2)COc2ccc1cc2 | – | > 100 µM | > 100 µM | > 100 µM | > 100 µM | > 100 µM | > 100 µM |
| Cc1ccc(SCC(OCn2cnc3c(Cl)nc(N)nc32)[C@H](C)F)cc1 (some centres undefined) | > 100 µM | > 100 µM | 29.4 µM | > 100 µM | > 100 µM | > 100 µM | > 100 µM |
| COc1ccc(C2C3=C(COC3=O)OC(C)(C)Oc3cc4c(cc32)OCO4)cc1OC (centres undefined) | 96.9 µM | > 100 µM | > 73.8 µM | > 80.3 µM | > 100 µM | > 100 µM | > 100 µM |
| C[n+]1cn(-c2nc3ccccc3nc2[N-]S(=O)(=O)c2ccccc2)c2ccccc21 | > 100 µM | > 100 µM | 5.27 µM | > 100 µM | > 100 µM | > 100 µM | > 100 µM |
| COc1ccc2c(c1OC)C(=O)O[C@@H]2[C@H]1c2c(cc3c(c2OC)OCO3)CCN1C | > 100 µM | > 100 µM | > 100 µM | > 100 µM | > 100 µM | > 100 µM | > 100 µM |
| CCOC(=O)C1(C(=O)OCC)C=C(c2ccccc2)N(C2OC(COC(C)=O)C(OC(C)=O)C(OC(C)=O)C2OC(C)=O)C1=S (centres undefined) | > 100 µM | > 100 µM | > 100 µM | > 100 µM | > 100 µM | > 100 µM | > 100 µM |
| C[C@H]1O[C@@H](C(C)(C)C)OC(=O)[C@@H]1C(OC(=O)c1ccccc1)c1cccc2ccccc12 (some centres undefined) | > 100 µM | > 100 µM | > 100 µM | > 100 µM | > 100 µM | > 100 µM | > 100 µM |
| COc1cc(OC)c(OC)cc1/C=C/c1cc[n+](C)c2ccccc12 | > 100 µM | > 100 µM | – | > 100 µM | > 100 µM | > 100 µM | > 100 µM |
| C=CCn1c(-c2ccc(Cl)cc2)csc1=Nc1ccccc1OC | 8.5 µM | > 100 µM | – | > 87.9 µM | > 100 µM | > 100 µM | 14.9 µM |
| O=C1NC(=Nc2ccccc2)C(=Nc2ccccc2)N1c1ccccc1 | 33.2 µM | 30 µM | 11.5 µM | – | 34.4 µM | 29.4 µM | 72.8 µM |
| C#CC(O)/C=C/C(O)CCCC(O)CC#CC(O)C#CCCCCC(O)/C=C/CCCC(O)/C=C/CCCCCCCCCCCCCC(O)C(O)C#CC(=O)O (centres undefined) | > 25 µM | – | > 25 µM | > 25 µM | > 25 µM | > 25 µM | > 25 µM |
| C=CCN(CCN(CC=C)S(=O)(=O)c1ccc(C)cc1)S(=O)(=O)c1ccc(C)cc1 | > 100 µM | > 100 µM | > 100 µM | > 100 µM | – | > 100 µM | > 100 µM |
